From ChEMBL document CHEMBL4014279, “Synthesis of novel pyrazolo[3,4-b]quinolinyl acetamide analogs, their evaluation for antimicrobial and anticancer activities, validation by molecular modeling and CoMFA analysis” (Eur J Med Chem, 2017)
pIC50: −log10 of the molar value. In brackets after ≈: the same amount, converted by molar mass. Activity calls are given as the source filed them. No cut-off for these calls is given here.

How the values were obtained:
Raoultella planticola [1] = assay: Antibacterial activity against Klebsiella planticola MTCC 530 after 24 hrs by well diffusion method; format: functional; settings: MTCC 530, 24 h
Candida albicans [2] = assay: Antifungal activity against Candida albicans MTCC 854 after 24 hrs by well diffusion method; format: functional; settings: MTCC 854, 24 h
HepG2 [3] = assay: Cytotoxicity against human HepG2 cells at >100 uM after 24 hrs by MTT assay; format: functional, cell-based
Candida parapsilosis = assay: Antifungal activity against Candida parapsilosis MTCC 1744 after 24 hrs by well diffusion method; format: functional; settings: MTCC 1744, 24 h
Candida albicans [4] = assay: Antifungal activity against Candida albicans MTCC 227 after 24 hrs by well diffusion method; format: functional; settings: MTCC 227, 24 h
Candida albicans [5] = assay: Antifungal activity against Candida albicans MTCC 3018 after 24 hrs by well diffusion method; format: functional; settings: MTCC 3018, 24 h
Pichia kudriavzevii = assay: Antifungal activity against Candida krusei MTCC 3020 after 24 hrs by well diffusion method; format: functional; settings: MTCC 3020, 24 h
Candida albicans [6] = assay: Antifungal activity against Candida albicans MTCC 3958 after 24 hrs by well diffusion method; format: functional; settings: MTCC 3958, 24 h
Pseudomonas aeruginosa = assay: Antibacterial activity against Pseudomonas aeruginosa MTCC 2453 after 24 hrs by well diffusion method; format: functional; settings: MTCC 2453, 24 h
Staphylococcus aureus [7] = assay: Antibacterial activity against Staphylococcus aureus MTCC 96 after 24 hrs by well diffusion method; format: functional; settings: MTCC 96, 24 h
Staphylococcus aureus [8] = assay: Antibacterial activity against Staphylococcus aureus MLS16 MTCC 2940 after 24 hrs by well diffusion method; format: functional; settings: MLS16 MTCC 2940, 24 h
HeLa [9] = assay: Cytotoxicity against human HeLa cells at >100 uM after 24 hrs by MTT assay; format: functional, cell-based
Candida albicans [10] = assay: Antifungal activity against Candida albicans MTCC 3017 after 24 hrs by well diffusion method; format: functional; settings: MTCC 3017, 24 h
Bacillus subtilis [11] = assay: Antibacterial activity against Bacillus subtilis MTCC 121 after 24 hrs by well diffusion method; format: functional; settings: MTCC 121, 24 h
Candida albicans [12] = assay: Antifungal activity against Candida albicans MTCC 1637 after 24 hrs by well diffusion method; format: functional; settings: MTCC 1637, 24 h
Escherichia coli [13] = assay: Antibacterial activity against Escherichia coli MTCC 739 after 24 hrs by well diffusion method; format: functional; settings: MTCC 739, 24 h
Candida albicans [14] = assay: Antifungal activity against Candida albicans MTCC 4748 after 24 hrs by well diffusion method; format: functional; settings: MTCC 4748, 24 h
A549 [15] = assay: Cytotoxicity against human A549 cells at >100 uM after 24 hrs by MTT assay; format: functional, cell-based
COLO 205 [16] = assay: Cytotoxicity against human COLO205 cells at >100 uM after 24 hrs by MTT assay; format: functional, cell-based
Nakaseomyces glabratus = assay: Antifungal activity against Candida glabrata MTCC 3019 after 24 hrs by well diffusion method; format: functional; settings: MTCC 3019, 24 h
Candida albicans [17] = assay: Antifungal activity against Candida albicans MTCC 183 after 24 hrs by well diffusion method; format: functional; settings: MTCC 183, 24 h
Pichia sporocuriosa = assay: Antifungal activity against Issatchenkia hanoiensis MTCC 4755 after 24 hrs by well diffusion method; format: functional; settings: MTCC 4755, 24 h
Micrococcus luteus [18] = assay: Antibacterial activity against Micrococcus luteus MTCC 2470 after 24 hrs by well diffusion method; format: functional; settings: MTCC 2470, 24 h
Candida albicans [19] = assay: Antifungal activity against Candida albicans MTCC 7315 after 24 hrs by well diffusion method; format: functional; settings: MTCC 7315, 24 h
[Candida] aaseri = Antifungal activity against Candida aaseri MTCC 1962 after 24 hrs by well diffusion method; format: functional; settings: Yamadazyma aaseri, MTCC 1962, 24 h
Candida albicans [20] = assay: Antibiofilm activity against Candida albicans MTCC 4748 after 24 hrs by crystal violet staining based method; format: functional; settings: MTCC 4748, 24 h
Raoultella planticola [21] = assay: Antibiofilm activity against Klebsiella planticola MTCC 530 after 24 hrs by crystal violet staining based method; format: functional; settings: MTCC 530, 24 h
Micrococcus luteus [22] = assay: Antibiofilm activity against Micrococcus luteus MTCC 2470 after 24 hrs by crystal violet staining based method; format: functional; settings: MTCC 2470, 24 h
Staphylococcus aureus [23] = assay: Induction of intracellular ROS accumulation in Staphylococcus aureus MLS16 MTCC 2940 sessile biofilm cells assessed as fluorescence intensity at 3 ug/ml after 24 hrs by DCFH-DA staining-based fluorescence assay (reference value: 62 +/- 9.8 a.u.); format: functional
HepG2 [24] = assay: Cytotoxicity against human HepG2 cells after 24 hrs by MTT assay; format: functional, cell-based; settings: HepG2, 24 h
Staphylococcus aureus [25] = assay: Antibiofilm activity against Staphylococcus aureus MTCC 96 after 24 hrs by crystal violet staining based method; format: functional; settings: MTCC 96, 24 h
COLO 205 [26] = assay: Cytotoxicity against human COLO205 cells after 24 hrs by MTT assay; format: functional, cell-based; settings: COLO 205, 24 h
Staphylococcus aureus [27] = assay: Induction of intracellular ROS accumulation in Staphylococcus aureus MLS16 MTCC 2940 sessile biofilm cells assessed as fluorescence intensity at 2 ug/ml after 24 hrs by DCFH-DA staining-based fluorescence assay (reference value: 62 +/- 9.8 a.u.); format: functional
Staphylococcus aureus [28] = assay: Antibiofilm activity against Staphylococcus aureus MLS16 MTCC 2940 after 24 hrs by crystal violet staining based method; format: functional; settings: MLS16 MTCC 2940, 24 h
Escherichia coli [29] = assay: Antibiofilm activity against Escherichia coli MTCC 739 after 24 hrs by crystal violet staining based method; format: functional; settings: MTCC 739, 24 h
Staphylococcus aureus [30] = assay: Induction of intracellular ROS accumulation in Staphylococcus aureus MLS16 MTCC 2940 sessile biofilm cells assessed as fluorescence intensity at 1 ug/ml after 24 hrs by DCFH-DA staining-based fluorescence assay (reference value: 62 +/- 9.8 a.u.); format: functional
Bacillus subtilis [31] = assay: Antibiofilm activity against Bacillus subtilis MTCC 121 after 24 hrs by crystal violet staining based method; format: functional; settings: MTCC 121, 24 h
A549 [32] = assay: Cytotoxicity against human A549 cells after 24 hrs by MTT assay; format: functional, cell-based; settings: A549, 24 h
Staphylococcus aureus [33] = assay: Induction of intracellular ROS accumulation in Staphylococcus aureus MLS16 MTCC 2940 sessile biofilm cells assessed as fluorescence intensity at 4 ug/ml after 24 hrs by DCFH-DA staining-based fluorescence assay (reference value: 62 +/- 9.8 a.u.); format: functional
HeLa [34] = assay: Cytotoxicity against human HeLa cells after 24 hrs by MTT assay; format: functional, cell-based

Structure (SMILES) | MIC (Raoultella planticola [1]) [µg/mL] | MIC (Candida albicans [2]) [µg/mL] | Activity (HepG2 [3]) | MIC (Candida parapsilosis) [µg/mL] | MIC (Candida albicans [4]) [µg/mL] | MIC (Candida albicans [5]) [µg/mL] | MIC (Pichia kudriavzevii) [µg/mL] | MIC (Candida albicans [6]) [µg/mL] | MIC (Pseudomonas aeruginosa) [µg/mL] | MIC (Staphylococcus aureus [7]) [µg/mL] | MIC (Staphylococcus aureus [8]) [µg/mL] | Activity (HeLa [9]) | MIC (Candida albicans [10]) [µg/mL] | MIC (Bacillus subtilis [11]) [µg/mL] | MIC (Candida albicans [12]) [µg/mL] | MIC (Escherichia coli [13]) [µg/mL] | MIC (Candida albicans [14]) [µg/mL] | Activity (A549 [15]) | Activity (COLO 205 [16]) | MIC (Micrococcus luteus [18]) [µg/mL] | also measured
O=C(Cn1nc(C(F)(F)F)c2c(-c3ccccc3)c3ccccc3nc21)N1CCOCC1 | 15.6 (≈ 35.4 µM) | 62.5 (≈ 142 µM) | inactive | 31.2 (≈ 70.8 µM) | 62.5 (≈ 142 µM) | 31.2 (≈ 70.8 µM) | 31.2 (≈ 70.8 µM) | 31.2 (≈ 70.8 µM) | > 125 | 62.5 (≈ 142 µM) | 31.2 (≈ 70.8 µM) | inactive | 31.2 (≈ 70.8 µM) | 31.2 (≈ 70.8 µM) | 62.5 (≈ 142 µM) | 62.5 (≈ 142 µM) | 31.2 (≈ 70.8 µM) | inactive | inactive | 15.6 (≈ 35.4 µM) | MIC (Nakaseomyces glabratus): 31.2 µg/mL (≈ 70.8 µM); MIC (Candida albicans [17]): 31.2 µg/mL (≈ 70.8 µM); MIC (Pichia sporocuriosa): 15.6 µg/mL (≈ 35.4 µM); MIC (Candida albicans [19]): 15.6 µg/mL (≈ 35.4 µM); MIC ([Candida] aaseri): 62.5 µg/mL (≈ 142 µM)
O=C(Cn1nc(C(F)(F)F)c2c(-c3ccccc3)c3ccccc3nc21)NCCN1CCNCC1 | 3.9 (≈ 8.08 µM) | 15.6 (≈ 32.3 µM) |  | 7.8 (≈ 16.2 µM) | 15.6 (≈ 32.3 µM) | 15.6 (≈ 32.3 µM) | 15.6 (≈ 32.3 µM) | 15.6 (≈ 32.3 µM) | > 125 | 7.8 (≈ 16.2 µM) | 3.9 (≈ 8.08 µM) |  | 7.8 (≈ 16.2 µM) | 3.9 (≈ 8.08 µM) | 7.8 (≈ 16.2 µM) | 7.8 (≈ 16.2 µM) | 7.8 (≈ 16.2 µM) |  |  | 3.9 (≈ 8.08 µM) | pIC50 (Candida albicans [20]): 5.29; pIC50 (Raoultella planticola [21]): 5.64; pIC50 (Micrococcus luteus [22]): 5.60; Flu intensity (Staphylococcus aureus [23]): 101 a.u.; pIC50 (HepG2 [24]): 4.95; pIC50 (Staphylococcus aureus [25]): 5.39; pIC50 (COLO 205 [26]): 4.91; Flu intensity (Staphylococcus aureus [27]): 792 a.u.; pIC50 (Staphylococcus aureus [28]): 5.68; pIC50 (Escherichia coli [29]): 5.38; Flu intensity (Staphylococcus aureus [30]): 492 a.u.; pIC50 (Bacillus subtilis [31]): 5.66; pIC50 (A549 [32]): 4.97; Flu intensity (Staphylococcus aureus [33]): 1342 a.u.; pIC50 (HeLa [34]): 4.87; MIC (Nakaseomyces glabratus): 15.6 µg/mL (≈ 32.3 µM); MIC (Candida albicans [17]): 7.8 µg/mL (≈ 16.2 µM); MIC (Pichia sporocuriosa): 7.8 µg/mL (≈ 16.2 µM); MIC (Candida albicans [19]): 15.6 µg/mL (≈ 32.3 µM); MIC ([Candida] aaseri): 15.6 µg/mL (≈ 32.3 µM)
O=C(Cn1nc(C(F)(F)F)c2c(-c3ccccc3)c3ccccc3nc21)NC1CC1 | 7.8 to 125 (≈ 19 to 305 µM) |  | inactive |  |  |  |  |  | 7.8 to 125 (≈ 19 to 305 µM) | 7.8 to 125 (≈ 19 to 305 µM) | 7.8 to 125 (≈ 19 to 305 µM) | inactive |  | 7.8 to 125 (≈ 19 to 305 µM) |  | 7.8 to 125 (≈ 19 to 305 µM) |  | inactive | inactive | 7.8 to 125 (≈ 19 to 305 µM) | 
Cc1c2ccccc2nc2c1c(C(F)(F)F)nn2CC(=O)NC1CCCC1 | 7.8 to 125 (≈ 20.7 to 332 µM) |  | inactive |  |  |  |  |  | 7.8 to 125 (≈ 20.7 to 332 µM) | 7.8 to 125 (≈ 20.7 to 332 µM) | 7.8 to 125 (≈ 20.7 to 332 µM) | inactive |  | 7.8 to 125 (≈ 20.7 to 332 µM) |  | 7.8 to 125 (≈ 20.7 to 332 µM) |  | inactive | inactive | 7.8 to 125 (≈ 20.7 to 332 µM) | 
